Results taken from patent US20260297081A1, “COMPOUNDS AND METHODS OF TREATING CANCERS” (Cullgen Inc., priority 2023, published 2026).

tested on: MCF7 cells; assay: Anti-proliferation (viability) of MCF7 cells (Table 7, FIG. 2B); type: cell-based; conditions: Homo sapiens, MCF7, MCF7 cells, 3-6 days, 10-point serial dilution; read-out: GI IC50 in MCF-7

Row | Structure (SMILES) | IC50
1 | CNc1ccc(C(=O)Nc2cn(C)c(C(C)(C)O)n2)c(NC2CC3(CC(NC(=O)CN4CCN(c5ccc(Nc6ncc7c(C)c(C(C)=O)c(=O)n(C8CCCC8)c7n6)nc5)CC4)C3)C2)n1 (centres unmarked) [CPD-340, 2-((6-(2-(4-(6-((6-acetyl-8-cyclopentyl-5-methyl-7-oxo-7,8-dihydropyrido[2,3-d]pyrimidin-2-yl)amino)pyridin-3-yl)piperazin-1-yl)acetamido)spiro[3.3]heptan-2-yl)amino)-N-(2-(2-hydroxypropan-2-yl)-1-methyl-1H-imidazol-4-yl)-6-(methylamino)nicotinamide] | > 0.1 µM
2 | [2H]C([2H])([2H])Nc1ccc(C(=O)Nc2ccc(N(C)C)nn2)c(NC2CC(CNC(=O)CN3CCN(c4ccc(Nc5ncc6c(C)c(C(C)=O)c(=O)n(C7CCCC7)c6n5)nc4)CC3)C2)n1 (centres unmarked) [CPD-343, 2-((3-((2-(4-(6-((6-acetyl-8-cyclopentyl-5-methyl-7-oxo-7,8-dihydropyrido[2,3-d]pyrimidin-2-yl)amino)pyridin-3-yl)piperazin-1-yl)acetamido)methyl)cyclobutyl)amino)-N-(6-(dimethylamino)pyridazin-3-yl)-6-((methyl-d3)amino)nicotinamide] | 0.05 to 0.1 µM
3 | CNc1ccc(C(=O)Nc2ccc(N(C)C)nn2)c(NCC2(F)CN(C(=O)CN3CCN(c4ccc(Nc5ncc6c(C)c(C(C)=O)c(=O)n(C7CCCC7)c6n5)nc4)CC3)C2)n1 [CPD-344, 2-(((1-(2-(4-(6-((6-acetyl-8-cyclopentyl-5-methyl-7-oxo-7,8-dihydropyrido[2,3-d]pyrimidin-2-yl)amino)pyridin-3-yl)piperazin-1-yl)acetyl)-3-fluoroazetidin-3-yl)methyl)amino)-N-(6-(dimethylamino)pyridazin-3-yl)-6-(methylamino)nicotinamide] | > 0.1 µM
4 | CNc1ccc(C(=O)Nc2ccc(N(C)C)nn2)c(NCC23CC(NC(=O)CN4CCN(c5ccc(Nc6ncc7c(C)c(C(C)=O)c(=O)n(C8CCCC8)c7n6)nc5)CC4)(C2)C3)n1 [CPD-345, 2-(((3-(2-(4-(6-((6-acetyl-8-cyclopentyl-5-methyl-7-oxo-7,8-dihydropyrido[2,3-d]pyrimidin-2-yl)amino)pyridin-3-yl)piperazin-1-yl)acetamido)bicyclo[1.1.1]pentan-1-yl)methyl)amino)-N-(6-(dimethylamino)pyridazin-3-yl)-6-(methylamino)nicotinamide] | > 0.1 µM
5 | CNc1ccc(C(=O)Nc2ccc(N(C)C)nn2)c(NC23CC(NC(=O)CN4CCN(c5ccc(Nc6ncc7c(C)c(C(C)=O)c(=O)n(C8CCCC8)c7n6)nc5)CC4)(C2)C3)n1 [CPD-346, 2-((3-(2-(4-(6-((6-acetyl-8-cyclopentyl-5-methyl-7-oxo-7,8-dihydropyrido[2,3-d]pyrimidin-2-yl)amino)pyridin-3-yl)piperazin-1-yl)acetamido)bicyclo[1.1.1]pentan-1-yl)amino)-N-(6-(dimethylamino)pyridazin-3-yl)-6-(methylamino)nicotinamide] | > 0.1 µM
6 | CNc1ccc(C(=O)Nc2cn(C)c(C3CC3)n2)c(NC2CCC3(CC2)CC(NC(=O)CN2CCN(c4ccc(Nc5ncc6c(C)c(C(C)=O)c(=O)n(C7CCCC7)c6n5)nc4)CC2)C3)n1 (centres unmarked) [CPD-347, 2-((2-(2-(4-(6-((6-acetyl-8-cyclopentyl-5-methyl-7-oxo-7,8-dihydropyrido[2,3-d]pyrimidin-2-yl)amino)pyridin-3-yl)piperazin-1-yl)acetamido)spiro[3.5]nonan-7-yl)amino)-N-(2-cyclopropyl-1-methyl-1H-imidazol-4-yl)-6-(methylamino)nicotinamide] | > 0.1 µM
7 | CNc1ccc(C(=O)Nc2ccc(N(C)C)nn2)c(NC2CC3(C2)CN(C(=O)C2CC(N4CCN(c5ccc(Nc6ncc7c(C)c(C(C)=O)c(=O)n(C8CCCC8)c7n6)nc5)CC4)C2)C3)n1 (centres unmarked) [CPD-348, 2-((2-(3-(4-(6-((6-acetyl-8-cyclopentyl-5-methyl-7-oxo-7,8-dihydropyrido[2,3-d]pyrimidin-2-yl)amino)pyridin-3-yl)piperazin-1-yl)cyclobutane-1-carbonyl)-2-azaspiro[3.3]heptan-6-yl)amino)-N-(6-(dimethylamino)pyridazin-3-yl)-6-(methylamino)nicotinamide] | > 0.1 µM

Results, then the compound that gave them:

Row | IC50 | Structure (SMILES)
8 | > 0.1 µM | CC(=O)c1c(C)c2cnc(Nc3ccc(N4CCN(CC(=O)NC5CC6(C5)CC(Nc5nc(C(C)O)ccc5C(=O)Nc5cn(C)c(C7CC7)n5)C6)CC4)cn3)nc2n(C2CCCC2)c1=O (centres unmarked) [CPD-349, 2-((6-(2-(4-(6-((6-acetyl-8-cyclopentyl-5-methyl-7-oxo-7,8-dihydropyrido[2,3-d]pyrimidin-2-yl)amino)pyridin-3-yl)piperazin-1-yl)acetamido)spiro[3.3]heptan-2-yl)amino)-N-(2-cyclopropyl-1-methyl-1H-imidazol-4-yl)-6-(1-hydroxyethyl)nicotinamide]
9 | > 0.1 µM | CNc1ccc(C(=O)Nc2ccc(N(C)C)nn2)c(NC2CCC(C(=O)N3CCC4(CC3)CCN(c3ccc(Nc5ncc6c(C)c(C(C)=O)c(=O)n(C7CCCC7)c6n5)nc3)CC4)CC2)n1 (centres unmarked) [CPD-350, 2-((4-(9-(6-((6-acetyl-8-cyclopentyl-5-methyl-7-oxo-7,8-dihydropyrido[2,3-d]pyrimidin-2-yl)amino)pyridin-3-yl)-3,9-diazaspiro[5.5]undecane-3-carbonyl)cyclohexyl)amino)-N-(6-(dimethylamino)pyridazin-3-yl)-6-(methylamino)nicotinamide]
10 | > 0.1 µM | CNc1ccc(C(=O)Nc2ccc(N(C)C)nn2)c(NC2CCC(C(=O)N3CC4(CCN(c5ccc(Nc6ncc7c(C)c(C(C)=O)c(=O)n(C8CCCC8)c7n6)nc5)CC4)C3)CC2)n1 (centres unmarked) [CPD-351, 2-((4-(7-(6-((6-acetyl-8-cyclopentyl-5-methyl-7-oxo-7,8-dihydropyrido[2,3-d]pyrimidin-2-yl)amino)pyridin-3-yl)-2,7-diazaspiro[3.5]nonane-2-carbonyl)cyclohexyl)amino)-N-(6-(dimethylamino)pyridazin-3-yl)-6-(methylamino)nicotinamide]
11 | > 0.1 µM | CC(=O)c1c(C)c2cnc(Nc3ccc(N4CCN(CC(=O)NC5CC6(C5)CC(Nc5nc(C(C)(C)O)ccc5C(=O)Nc5cn(C)c(C7CC7)n5)C6)CC4)cn3)nc2n(C2CCCC2)c1=O (centres unmarked) [CPD-352, 2-((6-(2-(4-(6-((6-acetyl-8-cyclopentyl-5-methyl-7-oxo-7,8-dihydropyrido[2,3-d]pyrimidin-2-yl)amino)pyridin-3-yl)piperazin-1-yl)acetamido)spiro[3.3]heptan-2-yl)amino)-N-(2-cyclopropyl-1-methyl-1H-imidazol-4-yl)-6-(2-hydroxypropan-2-yl)nicotinamide]
12 | > 0.1 µM | [2H]C([2H])([2H])Nc1ccc(C(=O)Nc2cc(C)n(C)n2)c(NC2CC(C(C)NC(=O)CN3CCN(c4ccc(Nc5ncc6c(C)c(C(C)=O)c(=O)n(C7CCCC7)c6n5)nc4)CC3)C2)n1 (centres unmarked) [CPD-353, 2-((3-(1-(2-(4-(6-((6-acetyl-8-cyclopentyl-5-methyl-7-oxo-7,8-dihydropyrido[2,3-d]pyrimidin-2-yl)amino)pyridin-3-yl)piperazin-1-yl)acetamido)ethyl)cyclobutyl)amino)-N-(1,5-dimethyl-1H-pyrazol-3-yl)-6-((methyl-d3)amino)nicotinamide]
13 | > 0.1 µM | CNc1ccc(C(=O)Nc2ccc(N(C)C)nn2)c(NCC2COC3(C2)CN(C(=O)CN2CCN(c4ccc(Nc5ncc6c(C)c(C(C)=O)c(=O)n(C7CCCC7)c6n5)nc4)CC2)C3)n1 (centres unmarked) [CPD-354, 2-(((2-(2-(4-(6-((6-acetyl-8-cyclopentyl-5-methyl-7-oxo-7,8-dihydropyrido[2,3-d]pyrimidin-2-yl)amino)pyridin-3-yl)piperazin-1-yl)acetyl)-5-oxa-2-azaspiro[3.4]octan-7-yl)methyl)amino)-N-(6-(dimethylamino)pyridazin-3-yl)-6-(methylamino)nicotinamide]
14 | 0.05 to 0.1 µM | CC(=O)c1c(C)c2cnc(Nc3ccc(N4CCN(C(C)CC(=O)N5CC(Nc6nc(NC(C)C)ccc6C(=O)Nc6ccc(N(C)C)nn6)C5)CC4)cn3)nc2n(C2CCCC2)c1=O (centres unmarked) [CPD-355, 2-((1-(3-(4-(6-((6-acetyl-8-cyclopentyl-5-methyl-7-oxo-7,8-dihydropyrido[2,3-d]pyrimidin-2-yl)amino)pyridin-3-yl)piperazin-1-yl)butanoyl)azetidin-3-yl)amino)-N-(6-(dimethylamino)pyridazin-3-yl)-6-(isopropylamino)nicotinamide]
15 | 0.05 to 0.1 µM | CC(=O)c1c(C)c2cnc(Nc3ccc(N4CCC(NCC(=O)N5CC(Nc6nc(NC(C)C)ccc6C(=O)Nc6ccc(N(C)C)nn6)C5)CC4)cn3)nc2n(C2CCCC2)c1=O [CPD-356, 2-((1-((1-(6-((6-acetyl-8-cyclopentyl-5-methyl-7-oxo-7,8-dihydropyrido[2,3-d]pyrimidin-2-yl)amino)pyridin-3-yl)piperidin-4-yl)glycyl)azetidin-3-yl)amino)-N-(6-(dimethylamino)pyridazin-3-yl)-6-(isopropylamino)nicotinamide]
16 | < 0.05 µM | CC(=O)c1c(C)c2cnc(Nc3ccc(N4CCC(NCC(=O)N5CCC(Nc6nc(NC(C)C)ccc6C(=O)Nc6ccc(N(C)C)nn6)CC5)CC4)cn3)nc2n(C2CCCC2)c1=O [CPD-357, 2-((1-((1-(6-((6-acetyl-8-cyclopentyl-5-methyl-7-oxo-7,8-dihydropyrido[2,3-d]pyrimidin-2-yl)amino)pyridin-3-yl)piperidin-4-yl)glycyl)piperidin-4-yl)amino)-N-(6-(dimethylamino)pyridazin-3-yl)-6-(isopropylamino)nicotinamide]
17 | > 0.1 µM | [2H]C([2H])([2H])Nc1ccc(C(=O)Nc2cc(C)on2)c(NC2CC(C(C)NC(=O)CN3CCN(c4ccc(Nc5ncc6c(C)c(C(C)=O)c(=O)n(C7CCCC7)c6n5)nc4)CC3)C2)n1 (centres unmarked) [CPD-361, 2-((3-(1-(2-(4-(6-((6-acetyl-8-cyclopentyl-5-methyl-7-oxo-7,8-dihydropyrido[2,3-d]pyrimidin-2-yl)amino)pyridin-3-yl)piperazin-1-yl)acetamido)ethyl)cyclobutyl)amino)-6-((methyl-d3)amino)-N-(5-methylisoxazol-3-yl)nicotinamide]
